# Laboratory results: patent US20210087593A1, “N-[…] ALKALOID COMPOUNDS” (Willow BioSciences Inc., priority 2017, published 2021)
# Columns and labels:
# [1] = system: EsNMT; experiment: N-alkylation substrate screen using EsNMT (LC-MS); type: biochemical, Ephedra sinica; set-up: key to N-alkylation of substrate alkaloid compounds, Enzyme EsNMT: −=no detectable quantities of product N-alkylated compound; Trace, +, ++, +++=increasing relative levels of product N-alkylated compound; Trace, +, ++, +++=increasing relative levels of product N-alkylated compound; Trace, +, ++, +++=increasing relative levels of product N-alkylated compound; Trace, +, ++, +++=increasing relative levels of product N-alkylated compound; settings: for N-alkylation of substrate alkaloid compounds, Enzyme EsNMT: 25 μg protein, 1 mM substrate, 1 mM SAM, 60 mM HEPES pH 8, 16 hours at 37° C., relative level of N-alkylated product by LC-MS; for N-alkylated alkaloid product detected after incubation with EsNMT (SEQ. ID NO: 2): incubated in accordance with Example 1, LC-MS
# Procedure: The EsNMT coding sequence was amplified from Ephedra sinica cDNA using gene-specific primers containing restriction sites with Q5 HiFi DNA polymerase (NEB). Restriction digests and ligations (NEB) were carried out to generate a pQE plasmid (Qiagen) for heterologous expression of HIS6-tagged recombinant EsNMT. Protein overexpression was carried out at 18° C. in Escherichia coli SG13009 (Qiagen) grown in lysogeny broth (LB) to which 0.5 mM isopropyl β-D-1-thiogalactopyranoside (IPTG) was added.
# (§1) Total soluble protein was extracted from each culture and the recombinant NMTs were purified using TALON cobalt affinity resin (Clontech) followed by desalting and concentration with Amicon Ultra-30 centrifugal filters (EMD Millipore). Protein concentration was determined using the Bradford method, and purity was assessed by SDS-PAGE followed by Coomassie staining.
# (§2) Forty-four nitrogenous molecules were screened as potential substrates for EsNMT using a standardized assay (25 μg protein, 1 mM substrate, 1 mM SAM, 60 mM HEPES pH 8, 16 hours at 37° C.). In addition, a representative subset was screened as potential substrates for GfCNMT, GfTNMT and PsRNMT under identical conditions. For each substrate and enzyme combination, negative control assays were carried out using protein heated to 100° C. (boiled) for 20 minutes. Assays were quenched with 9 volumes of methanol, centrifuged to pellet insoluble debris and the supernatants were stored at −20° C. prior to analysis.
# (§3) Assay supernatants were analyzed by liquid chromatography-mass spectrometry (LC-MS). LC-MS analysis was performed using a 1200 HPLC coupled with a 6410 triple-quadrupole MS (Agilent). Samples (2 μl) were injected onto a Luna […] Phenyl-Hexyl 100 Å HPLC column and analytes were eluted in a gradient of solvent A (0.1% Formic acid, 5% v/v methanol in water) and solvent B (0.1% Formic acid in methanol) at a flow rate of 300 μl per minute. The gradient began at 0% B, reached 35% B by 12 minutes, then increased to 85% B at 14 min and remained at that level until 18 minutes. Subsequently, the mixture returned to 0% B over a period of 3 minutes before a final 6 minute re-equilibration period. Analytes were applied to the mass analyzer using an electrospray ionization probe operating in positive mode with the following condition: capillary voltage, 4000V; fragmentor voltage, 100V, source temperature, 350° C.; nebulizer pressure, 50 PSI; gas flow 10 L/min. Ions were detected in full scan mode where quadrupoles 1 and 2 were set to RF only, whereas the third quadrupole scanned from 100-500 m/z over 525 milliseconds. Substrate acceptance by the enzymes was determined according to the formation of a peak with a 14-m/z increase in mass, corresponding to methylated substrate and a decrease in the substrate peak area, relative to the appropriate boiled control assay.
# (§4) Each of the alkaloid substrates shown in Table 1 were incubated with the following N-alkyltransferases: GfCNMT (SEQ. ID NO: 3), gfTNMT (SEQ. ID NO: 4) and Ps RNMT ([…]) and EsNMT (SEQ. ID NO: 2), as described in Example 1. The presence of N-alkylated alkaloid product was detected as described in Examples 1-20. Legend: ND=Not Determined; −=no detectable quantities of product N-alkylated compound; and Trace, +, ++, +++=increasing relative levels of product N-alkylated compound.
# [2] = system: GfTNMT; experiment: N-alkylation substrate screen using GfTNMT (LC-MS); type: biochemical, Glaucium flavum; set-up: key: −=no detectable quantities of product N-alkylated compound; Trace, +, ++, +++=increasing relative levels of product N-alkylated compound; Trace, +, ++, +++=increasing relative levels of product N-alkylated compound; Trace, +, ++, +++=increasing relative levels of product N-alkylated compound; Trace, +, ++, +++=increasing relative levels of product N-alkylated compound; settings: 25 μg protein, 1 mM substrate, 1 mM SAM, 60 mM HEPES pH 8, 16 hours at 37° C.; relative level of N-alkylated product by LC-MS
# Procedure: (§5) The GfCNMT, GfTNMT and PsRNMT coding sequences were amplified from Glaucium flavum (GfCNMT and GfTNMT) or Papaver somniferum (PsRNMT) cDNA using gene-specific primers containing attB recombination sites with Q5 HiFi DNA polymerase (NEB). Recombination reactions were carried out using BP and LR Clonase II (Thermo Scientific) to generate individual pDONR221 entry plasmids and, subsequently, individual pHGWA plasmids for heterologous expression of polyhistidine (HIS6)-tagged recombinant GfCNMT, GfTNMT and PsRNMT. Protein overexpression was carried out at 18° C. using E. coli ArcticExpress (Agilent) grown in Studier's autoinduction media.
# as §1, §2, §3, §4
# [3] = system: PsRNMT; experiment: N-alkylation substrate screen using PsRNMT (LC-MS); type: biochemical, Papaver somniferum; set-up: key: −=no detectable quantities of product N-alkylated compound; Trace, +, ++, +++=increasing relative levels of product N-alkylated compound; Trace, +, ++, +++=increasing relative levels of product N-alkylated compound; Trace, +, ++, +++=increasing relative levels of product N-alkylated compound; Trace, +, ++, +++=increasing relative levels of product N-alkylated compound; settings: 25 μg protein, 1 mM substrate, 1 mM SAM, 60 mM HEPES pH 8, 16 hours at 37° C.; relative level of N-alkylated product by LC-MS
# Procedure: as §5, §1, §2, §3, §4
# [4] = system: GfCNMT; experiment: N-alkylation substrate screen using GfCNMT (LC-MS); type: biochemical, Glaucium flavum; set-up: key: −=no detectable quantities of product N-alkylated compound; Trace, +, ++, +++=increasing relative levels of product N-alkylated compound; Trace, +, ++, +++=increasing relative levels of product N-alkylated compound; Trace, +, ++, +++=increasing relative levels of product N-alkylated compound; Trace, +, ++, +++=increasing relative levels of product N-alkylated compound; settings: 25 μg protein, 1 mM substrate, 1 mM SAM, 60 mM HEPES pH 8, 16 hours at 37° C.; relative level of N-alkylated product by LC-MS
# Procedure: as §5, §1, §2, §3, §4
compound,measurement,setting,value
"CC(N)Cc1ccccc1 (centres unmarked) [Amphetamine, amphetamine, reference compound]","N-alkylation of substrate alkaloid compounds, Enzyme EsNMT",[1],+
same,"N-alkylation of substrate alkaloid compounds, Enzyme GfTNMT",[2],Trace
same,"N-alkylation of substrate alkaloid compounds, Enzyme PsRNMT",[3],−
same,"N-alkylation of substrate alkaloid compounds, Enzyme GfCNMT",[4],Trace
"NCCc1c[nH]c2ccccc12 [Tryptamine, tryptamine]","N-alkylation of substrate alkaloid compounds, Enzyme EsNMT",[1],+++
same,"N-alkylation of substrate alkaloid compounds, Enzyme GfTNMT",[2],Trace
same,"N-alkylation of substrate alkaloid compounds, Enzyme PsRNMT",[3],Trace
same,"N-alkylation of substrate alkaloid compounds, Enzyme GfCNMT",[4],Trace
"COc1cc2c(cc1O)C(Cc1ccc(O)cc1)NCC2 (centres unmarked) [Coclaurine, coclaurine]","N-alkylation of substrate alkaloid compounds, Enzyme EsNMT",[1],+
same,"N-alkylation of substrate alkaloid compounds, Enzyme GfTNMT",[2],+
same,"N-alkylation of substrate alkaloid compounds, Enzyme PsRNMT",[3],++
same,"N-alkylation of substrate alkaloid compounds, Enzyme GfCNMT",[4],+++
"c1cc2c(c3c1C[C@H]1c4cc5c(cc4CCN1C3)OCO5)OCO2 [Stylopine, stylopine]","N-alkylation of substrate alkaloid compounds, Enzyme EsNMT",[1],+
same,"N-alkylation of substrate alkaloid compounds, Enzyme GfTNMT",[2],+
same,"N-alkylation of substrate alkaloid compounds, Enzyme PsRNMT",[3],+++
same,"N-alkylation of substrate alkaloid compounds, Enzyme GfCNMT",[4],+
"COc1ccc(C[C@H]2c3cc(O)c(OC)cc3CCN2C)cc1O [S-Reticuline, reticuline]","N-alkylation of substrate alkaloid compounds, Enzyme EsNMT",[1],+
same,"N-alkylation of substrate alkaloid compounds, Enzyme GfTNMT",[2],++
same,"N-alkylation of substrate alkaloid compounds, Enzyme PsRNMT",[3],+++
same,"N-alkylation of substrate alkaloid compounds, Enzyme GfCNMT",[4],+
"NC(=O)c1cccnc1 [Nicotinamide, nicotinamide]","N-alkylation of substrate alkaloid compounds, Enzyme EsNMT",[1],−
same,N-alkylated alkaloid product detected after incubation with EsNMT (SEQ. ID NO: 2),[1],No N-alkylated alkaloid product compounds were detected
same,"N-alkylation of substrate alkaloid compounds, Enzyme GfTNMT",[2],−
same,"N-alkylation of substrate alkaloid compounds, Enzyme PsRNMT",[3],−
same,"N-alkylation of substrate alkaloid compounds, Enzyme GfCNMT",[4],−
"COc1cc2c(cc1OC)CNCC2 [THQ2, 6,7-dimethoxy-1,2,3,4-tetrahydroisoquinoline]","N-alkylation of substrate alkaloid compounds, Enzyme EsNMT",[1],+++
same,"N-alkylation of substrate alkaloid compounds, Enzyme GfTNMT",[2],+
same,"N-alkylation of substrate alkaloid compounds, Enzyme PsRNMT",[3],+
same,"N-alkylation of substrate alkaloid compounds, Enzyme GfCNMT",[4],+++
"NCCc1ccc(O)cc1 [Tyramine, tyramine]","N-alkylation of substrate alkaloid compounds, Enzyme EsNMT",[1],+
same,"N-alkylation of substrate alkaloid compounds, Enzyme GfTNMT",[2],−
same,"N-alkylation of substrate alkaloid compounds, Enzyme PsRNMT",[3],−
same,"N-alkylation of substrate alkaloid compounds, Enzyme GfCNMT",[4],+
"NCCc1c[nH]cn1 [Histamine, histamine]","N-alkylation of substrate alkaloid compounds, Enzyme EsNMT",[1],−
same,N-alkylated alkaloid product detected after incubation with EsNMT (SEQ. ID NO: 2),[1],No N-alkylated alkaloid product compounds were detected
same,"N-alkylation of substrate alkaloid compounds, Enzyme GfTNMT",[2],−
same,"N-alkylation of substrate alkaloid compounds, Enzyme PsRNMT",[3],−
same,"N-alkylation of substrate alkaloid compounds, Enzyme GfCNMT",[4],−
"CC(N)C(O)c1ccccc1 (centres unmarked) [Norephedrine, norephedrine]","N-alkylation of substrate alkaloid compounds, Enzyme EsNMT",[1],+
same,"N-alkylation of substrate alkaloid compounds, Enzyme GfTNMT",[2],−
same,"N-alkylation of substrate alkaloid compounds, Enzyme PsRNMT",[3],−
same,"N-alkylation of substrate alkaloid compounds, Enzyme GfCNMT",[4],−
"COc1ccc2c(c1)[nH]c1c(C)nccc12 [Harmine, harmine]","N-alkylation of substrate alkaloid compounds, Enzyme EsNMT",[1],−
same,N-alkylated alkaloid product detected after incubation with EsNMT (SEQ. ID NO: 2),[1],No N-alkylated alkaloid product compounds were detected
same,"N-alkylation of substrate alkaloid compounds, Enzyme GfTNMT",[2],−
same,"N-alkylation of substrate alkaloid compounds, Enzyme PsRNMT",[3],−
same,"N-alkylation of substrate alkaloid compounds, Enzyme GfCNMT",[4],++
"COc1ccc2c3c([nH]c2c1)C(C)=NCC3 [Harmaline, harmaline]","N-alkylation of substrate alkaloid compounds, Enzyme EsNMT",[1],+
same,"N-alkylation of substrate alkaloid compounds, Enzyme GfTNMT",[2],−
same,"N-alkylation of substrate alkaloid compounds, Enzyme PsRNMT",[3],−
same,"N-alkylation of substrate alkaloid compounds, Enzyme GfCNMT",[4],+
"COc1ccc2c(c1OC)C(=O)O[C@@H]2[C@H]1c2c(cc3c(c2OC)OCO3)CCN1C [Noscapine, noscapine, reference compound]","N-alkylation of substrate alkaloid compounds, Enzyme EsNMT",[1],−
same,N-alkylated alkaloid product detected after incubation with EsNMT (SEQ. ID NO: 2),[1],No N-alkylated alkaloid product compounds were detected
same,"N-alkylation of substrate alkaloid compounds, Enzyme GfTNMT",[2],+++
same,"N-alkylation of substrate alkaloid compounds, Enzyme PsRNMT",[3],++
same,"N-alkylation of substrate alkaloid compounds, Enzyme GfCNMT",[4],Trace
